Reference: patent publication US20110182850A1, “ORGANIC COMPOUNDS AND THEIR USES” (priority 2009, published 2011)
Like-named read-outs stand apart in the source and are kept apart here.

What was measured:
[1] = target: T1, HCV NS3-4A serine protease (full-length NS3-4A protein, genotype 1a, strain HCV-1) (Hepatitis C virus genotype 1a, UniProt P26664); assay: HCV NS3-4A protease assay; format: biochemical; conditions: Protease IC50
T1 construct: using the full-length NS3-4A protein (genotype 1a, strain HCV-1)
T1 sequence (P26664 1658-1711): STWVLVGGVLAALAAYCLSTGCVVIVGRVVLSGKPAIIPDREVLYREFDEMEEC
T1 sequence (P26664 1027-1657): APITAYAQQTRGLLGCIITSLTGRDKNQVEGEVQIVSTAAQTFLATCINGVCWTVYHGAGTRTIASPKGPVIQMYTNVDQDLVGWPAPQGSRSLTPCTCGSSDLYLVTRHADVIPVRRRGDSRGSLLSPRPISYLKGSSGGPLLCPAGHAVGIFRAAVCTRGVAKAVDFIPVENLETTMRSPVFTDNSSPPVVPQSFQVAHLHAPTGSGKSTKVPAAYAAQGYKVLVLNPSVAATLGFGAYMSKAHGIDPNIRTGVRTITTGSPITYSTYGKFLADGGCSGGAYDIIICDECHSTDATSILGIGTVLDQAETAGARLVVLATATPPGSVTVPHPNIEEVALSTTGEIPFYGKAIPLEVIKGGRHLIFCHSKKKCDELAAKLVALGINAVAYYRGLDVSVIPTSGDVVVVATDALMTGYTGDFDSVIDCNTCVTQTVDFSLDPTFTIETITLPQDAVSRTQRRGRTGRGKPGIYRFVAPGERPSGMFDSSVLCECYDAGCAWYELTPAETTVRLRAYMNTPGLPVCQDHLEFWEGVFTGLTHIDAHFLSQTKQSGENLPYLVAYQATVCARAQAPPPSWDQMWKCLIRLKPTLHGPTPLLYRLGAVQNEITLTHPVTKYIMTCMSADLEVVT
Experimental: The inhibitory activity of certain compounds of Table A against HCV NS3-4A serine protease is determined in a homogenous assay using the full-length NS3-4A protein (genotype 1a, strain HCV-1) and a commercially available internally-quenched fluorogenic peptide substrate as described by Taliani, M., et al. 1996 Anal. Biochem. 240:60-67, which is incorporated by reference in its entirety.

in vivo = assay: in vivo; set-up: species or system Sprague Dawley rats; conditions: rat; for Cmax: Sprague Dawley, po, 10 mg/kg
Experimental: Certain compounds of Table A and Comparative Example 1 (Compound A-7 of copending international patent application serial no. PCT/EP08/063,460) are administered as a solution orally via gavage at 10 mg/kg to Sprague Dawley rats at a dosing volume of 10 ml/kg. Samples are collected via a surgically implanted cannula at selected timepoints deemed necessary to characterize pharmacokinetic parameters. Blood samples are placed on wet ice and spun down to plasma within 5 minutes of timepoint collection. Plasma samples are frozen until bioanalytical analysis.
Certain compounds of Table A and Comparative Example 1 are administered intravenously into a surgically implanted cannula as a solution at 1 mg/kg to Sprague Dawley rats at a dosing volume of […]. Samples are collected via another surgically implanted cannula at selected timepoints deemed necessary to characterize pharmacokinetic parameters. Blood samples are placed on wet ice and spun down to plasma within 5 minutes of timepoint collection. Plasma samples are frozen until bioanalytical analysis.

[2] = Measurement of thermodynamic solubility; format: physicochemical; conditions: thermodynamic from solid, read-out: solubility in water
Experimental: Thermodynamic solubility for the compounds of the invention listed in Table C is measured by a published literature procedure, e.g., Liping Zhou, et al., J. Pharm. Sci (2007) 96(11): 3052-3071.
The DMSO stocks of test compounds previously dissolved in 25 μL of DMSO (˜10 mM) in mini-prep vial (MPV: Whatman, with PVDF filter and 0.45 μm pore size) chamber were evaporated via a GeneVac HT-4X evaporator for approximately 1 hour, at the guard temperature of 30° C. An aliquot of 250 μL buffer solution (pH 1.0 or 6.8) was added into each MPV chamber containing powders reconstituted from DMSO stock solutions. The MPV filter plungers were pushed down into the chamber until the membrane of the filter plunger slightly touched the surface of the buffer to promote equilibrium between the two compartments and to minimize the adsorption due to non-specific binding of samples during the subsequent 24-hr incubation (at 600 RPM at room temperature). Immediately after the 24-hr incubation, the plungers were further pushed down to the bottom of the chambers. More solution was pushed through the membrane and entered the plunger compartment. The filter/chamber assemblies were then put on a shaker for another 30 minutes at 600 RPM. Afterwards, filtrates were further diluted (1:10) with 50/50 acetonitrile/water solvent followed by a thorough mixing process. Both plates with diluted and undiluted filtrates were analyzed by HPLC and quantified against the four-point standard dilution curve of the same test compound (5 μM, 35 μM, 65 μM and 100 μM, respectively). In the current study, solubility reflects the average of triplicate samples tested at each pH.

[3] = pH 1, simulated gastric fluid, pH of about 1
[4] = pH 6.8, aqueous buffer, pH of about 6.8

Compound	IC50 [1]	Cmax (in vivo)	solubility at 24 h [2, 3]	solubility at 24 h [2, 4]	bioavailability (in vivo)
C=C[C@@H]1C[C@]1(NC(=O)[C@@H]1C[C@@]2(CN1C(=O)[C@@H](NC(=O)[C@@H](NC(=O)[C@@H]1CCCCN1C(C)C)C1CCCCC1)C(C)(C)C)C(C)(C)C21CCC1)C(=O)NS(=O)(=O)C1(C)CC1 [Compound 63, (5R,8S)-7-[(2S)-2-{[(2S)-2-cyclohexyl-2-({[(2S)-1-isopropylpiperidin-2-yl]carbonyl}amino)acetyl]amino}-3,3-dimethylbutanoyl]-10,10-dimethyl-N-[(1R,2S)-1-{[(1-methylcyclopropyl)sulfonyl]carbamoyl}-2-vinylcyclopropyl]-7-azadispiro[3.0.4.1]decane-8-carboxamide]	1.8 nM	320 nM	≥ 100 µM	≥ 30 µM	–
C=C[C@@H]1C[C@]1(NC(=O)[C@@H]1C[C@@]2(CN1C(=O)[C@@H](NC(=O)[C@@H](NC(=O)[C@@H]1CCCCN1C(C)C)C1CCCCC1)C(C)(C)C)C(C)(C)C21CCC1)C(=O)NS(=O)(=O)C1(CCC)CC1 [Compound 68, (5R,8S)-7-[(2S)-2-{[(2S)-2-cyclohexyl-2-({[(2S)-1-isopropylpiperidin-2-yl]carbonyl}amino)acetyl]amino}-3,3-dimethylbutanoyl]-10,10-dimethyl-N-[(1R,2S)-1-{[(1-propylcyclopropyl)sulfonyl]carbamoyl}-2-vinylcyclopropyl]-7-azadispiro[3.0.4.1]decane-8-carboxamide]	4 nM	348 nM	≥ 100 µM	≥ 30 µM	–
CCCC1(S(=O)(=O)NC(=O)[C@@]2(NC(=O)[C@@H]3C[C@@]4(CN3C(=O)[C@@H](NC(=O)[C@@H](NC(=O)[C@@H]3CCCCN3C(C)C)C3CCCCC3)C(C)(C)C)C(C)(C)C43CCC3)C[C@H]2CC)CC1 [Compound 77, (5R,8S)-7-[(2S)-2-{[(2S)-2-cyclohexyl-2-({[(2S)-1-isopropylpiperidin-2-yl]carbonyl}amino)acetyl]amino}-3,3-dimethylbutanoyl]-N-[(1R,2R)-2-ethyl-1-{[(1-propylcyclopropyl)sulfonyl]carbamoyl}cyclopropyl]-10,10-dimethyl-7-azadispiro[3.0.4.1]decane-8-carboxamide]	2 nM	–	≥ 100 µM	≥ 30 µM	–
CC[C@@H]1C[C@]1(NC(=O)[C@@H]1C[C@@]2(CN1C(=O)[C@@H](NC(=O)[C@@H](NC(=O)[C@@H]1CCCN1C(C)C)C1CCCCC1)C(C)(C)C)C(C)(C)C21CCC1)C(=O)NS(=O)(=O)C1(C)CC1 [Compound 82, (5R,8S)-7-[(2S)-2-{[(2S)-2-cyclohexyl-2-({[(2S)-1-isopropylpyrrolidin-2-yl]carbonyl}amino)acetyl]amino}-3,3-dimethylbutanoyl]-N-[(1R,2R)-2-ethyl-1-{[(1-methylcyclopropyl)sulfonyl]carbamoyl}cyclopropyl]-10,10-dimethyl-7-azadispiro[3.0.4.1]decane-8-carboxamide]	2.4 nM	–	≥ 100 µM	≥ 30 µM	–
C=C[C@@H]1C[C@]1(NC(=O)[C@@H]1C[C@@]2(CN1C(=O)[C@@H](NC(=O)OC(C)(C)C)C(C)C)C(C)(C)C21CCC1)C(=O)NS(=O)(=O)C1CC1 [compound 1, tert-butyl [(1S)-1-{[(5R,8S)-8-({(1R,2S)-1-[(cyclopropylsulfonyl)carba-moyl]-2-vinylcyclopropyl}carbamoyl)-10,10-dimethyl-7-azadispiro[3.0.4.1]dec-7-yl]carbonyl}-2-methylpropyl]carbamate, reference compound]	–	–	–	–	2%
